Test results: US20250082794A1, “ANTIMONY CHELATES FOR TARGETED AUGER THERAPY AND IMAGING DIAGNOSTICS” (Wisconsin Alumni Research Foundation, priority 2023, published 2025)

Experiment: SPECT and PET imaging biodistribution in mice
Format: in vivo, BALB/c mice
Method: For in vivo imaging and stability studies, ^117Sb was produced in 0.5 M NH4OAc at the University of Wisconsin-Madison and experiments were conducted the same day. 2 mL of ^117Sb in 0.5 M NH4OAc pH 4 solution was combined with 220 μL of 10 mM TRENCAM in 20% DMSO solution and heated to 80° C. for 1 h. Quantitative radiolabeling was confirmed via TLC. A 1:5 dilution of the radiolabeling solution with DI H2O was performed before passing it through a C8 Sep-Pak® cartridge (Waters, Milford, MA, USA), preconditioned with 5 mL EtOH and 5 mL H2O) to trap the [^117Sb]Sb-TRENCAM complex. The cartridge was rinsed with 1 mL H2O to remove NH4OAc buffer and unchelated ^117/119Sb, and then the [^117Sb]Sb-TRENCAM complex was eluted with EtOH and collected dropwise. […]
Two groups of healthy 3-month-old male BALB/c mice (n=3) ([…]) were injected with 150 μL ^117Sb solutions. […] In both cases, scanner calibration occurred by imaging vials of ^117Sb activity and correlating image signal strength to activity measured via High Purity Germanium (HPGe) gamma spectroscopy. […] Using co-registered CT images, manual volume-of-interest delineation of tissues allowed activity biodistribution measurement, as expressed as percent injected activity per gram of tissue (% IA/g), using either Inveon Research Workstation (Siemens) for PET VOI analysis or Imalytics 3.0 (MILabs) for SPECT VOI analysis. […]

For `[OH][Sb-]([OH])([OH])([OH])([OH])[OH]` [[^117Sb]Sb(OH)6^−], the “uptake in bone (PET images)” value (PET 150 min post injection) was “uptake” and the “clearance route and organ uptake by PET and SPECT imaging” value (tail vein injection, imaged 20-240 min post injection) was “renal clearance with liver accumulation”.
